Data on two compounds can be found in US6630127B2, “Method for assessing cortical response to blue light” (The McLean Hospital Corporation, priority 2000, dated 2003).

SMILES strings stand for the structures.

In test [1] the test system is human primary visual cortex (V1). The test is described as follows: fMRI BOLD study with alternating red and blue photic stimulation after oral d-amphetamine or placebo.
For another test, the system named is visual cortex. The settings on record: photic stimulation paradigm, humans; cited from earlier work.

Consider `C[C@H](N)Cc1ccccc1.C[C@H](N)Cc1ccccc1.O=S(=O)(O)O` [d-amphetamine, d-amphetamine sulfate], for which the “Mean % BOLD signal change (all trials), V1, blue light stimulation” value in test [1] (blue light 470 nm, 0.12 lux, 8 Hz, right and left V1 1x4 ROI, 2.5 mg d-amphetamine sulfate oral, N = 13) was determined as 2.04%. Also, the “mean BOLD signal change higher in drug than in placebo condition, blue light” value in test [1] (blue light, drug 2.04% versus placebo 1.60%, all trials) was found to be 28%. Besides, the “effect of time following drug administration on BOLD signal response to blue light” value in test [1] (linear regression, 5 trials from about 18 min post-drug, Z=-2.471, P=0.013, decreasing BOLD signal over time) was “significant effect of time”. The “effect of time following drug administration on BOLD signal response to red light” value in test [1] (linear regression, 5 trials, Z=-0.470, P=0.638) is “no significant effect of drug over time”. In test [1] (low dose (2.5 mg) d-amphetamine versus placebo), the “overall BOLD response to red and blue light” value is listed as “enhanced”. Further, the “Mean % BOLD signal change (all trials), V1, red light stimulation” value in test [1] (red light 660 nm, 0.12 lux, 8 Hz, right and left V1 1x4 ROI, 2.5 mg d-amphetamine sulfate oral, N = 13) turned out to be 1.24%. The “mean BOLD signal change higher in drug than in placebo condition, red light” value in test [1] (red light, drug 1.24% versus placebo 0.95%, all trials) is given as 30%.

Take `CCO` [ethanol]: the “effect on BOLD signal / photic activation in visual cortex” value in the test on visual cortex is given as “inhibits photic activation”.
